Several values for one entry are separate records, joined by “and”; a condition that tells them apart may be missing. Equal entries are not always repeated.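 Exposure lasted 48 hours, with cells grown in 96-well plates and compounds tested at five concentrations. GI50 = concentration required for 50% inhibition of growth. Definition used: TGI = concentration required for complete inhibition of growth.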
Legend:
Assay in all cases: growth of human tumour cells (NCI), 48 h
CCRF-CEM leukemia = tested on: CCRF-CEM leukemia
MOLT-4 leukemia = tested on: MOLT-4 leukemia
OVCAR-3 ovarian = tested on: OVCAR-3 ovarian
OVCAR-8 ovarian = tested on: OVCAR-8 ovarian
RXF 393 renal = tested on: RXF 393 renal
SK-OV-3 ovarian = tested on: SK-OV-3 ovarian

Row | SMILES | TGI (CCRF-CEM leukemia) [µM] | TGI (MOLT-4 leukemia) [µM] | TGI (OVCAR-3 ovarian) [µM] | TGI (OVCAR-8 ovarian) [µM] | TGI (RXF 393 renal) [µM] | TGI (SK-OV-3 ovarian) [µM] | GI50 (CCRF-CEM leukemia) [µM] | GI50 (MOLT-4 leukemia) [µM] | GI50 (OVCAR-3 ovarian) [µM] | GI50 (RXF 393 renal) | GI50 (SK-OV-3 ovarian) [µM] | GI50 (OVCAR-8 ovarian) [µM]
1 | CN(C)CCC(=O)N1CCc2c([nH]c3ccccc23)C1c1cccnc1 (centres undefined) | > 100 | > 100 | > 100 | > 100 | 59.7 | > 100 |  |  |  |  |  | 
2 | O=C1[C@@H]2C(c3ccncc3)=NO[C@@H]2C(=O)N1c1ccc(Cc2ccc(N3C(=O)[C@H]4C(c5ccncc5)=NO[C@H]4C3=O)cc2)cc1 | > 100 | > 100 | > 100 | > 100 | > 100 | > 100 |  |  |  |  |  | 
3 | Cc1cccc2cc3cccc(C(=O)NCCN(C)C)c3nc12 | 3.53 | 0.344 | 5.38 | 5.58 | 0.931 | 0.619 |  |  |  |  |  | 
4 | Cc1nc2ccccc2c(/C=C/c2ccccc2)c1C(=O)/C=C/c1ccc(Cl)cc1 | 5.24 | 6.49 | 2.91 |  | 2.64 | > 100 | 0.481 | 1.09 | 1.48 | 1.28 µM | > 100 | 
5 | COc1ccc(C(=O)C/C(=N/NC(N)=S)C(=O)Nc2ccccc2)cc1 | > 100 | > 100 | > 100 | > 100 | > 100 | > 100 |  |  |  |  |  | 
6 | CCOC(=O)C1=C(c2ccccc2)NC(c2ccccc2)=C(C(=O)OCC)c2c1c(=O)cc[nH]c2=O |  | > 100 | > 100 | > 100 |  | > 100 |  |  |  |  |  | 
7 | CN(C)CCC(/C=C/c1ccccc1)=N\Nc1ccc(Cl)cc1 | 11 | 5.43 | 22.5 | 14 | 20.9 | 13.4 |  |  |  |  |  | 
8 | CCOC(=O)C1=C(C)N(NC(=O)OC)C2(N)N(NC(=O)OC)C(C)=C(C(=O)OCC)C12C#N (centres undefined) |  | > 100 | > 100 | > 100 |  | > 100 |  |  |  |  |  | 
9 | Cc1cc(Cl)ccc1N1C(=O)C(=O)C(c2nc3ccccc3o2)C(=O)C1=O | > 100 | > 100 | > 100 | > 100 | > 100 | > 100 |  |  |  |  |  | 
10 | Cc1cccc(Cl)c1NC(=O)c1cccc([N+](=O)[O-])c1O | > 100 | > 100 | 76.4 | > 100 | 50.7 | > 100 |  |  |  |  |  | 
11 | CC(=O)OCC1OC(n2c(=S)n(-c3ccccc3)c(=O)c3cc(Br)ccc32)C(OC(C)=O)C(OC(C)=O)C1OC(C)=O (centres undefined) | > 100 | > 100 | > 100 | > 100 | > 100 | > 100 |  |  |  | 33.7 µM and > 100 µM |  | 
12 | O=[N+]([O-])c1ccc2nc3ccscc-3c2c1 | > 100 | > 100 | > 100 |  |  | 86.3 |  |  |  |  |  | 
13 | C/C=C/C=C/CCCCCCCCCCCCC[C@]1(OC)C=CC(CC(=O)OC)OO1 (some centres undefined) | 28.7 | 48.7 | 42.2 | 37.7 | 31 | 81 | 6.9 | 19.9 | 22.1 | 16.5 µM |  | 17.6
14 | C=C[Si](C)(C)COC(=O)/C(C#N)=C/C=C/c1ccccc1 | > 100 | > 100 | > 100 | > 100 | > 100 | > 100 |  |  |  |  |  | 
15 | NC1=NCC(c2ccccn2)C1c1ccc(F)cc1 (centres undefined) | > 100 | > 100 | > 100 | > 100 | > 100 | > 100 |  |  |  |  |  | 
16 | Cc1ccccc1NC(=O)C(=O)CC(=O)C1CCOC1=O (centres undefined) | > 100 |  | > 100 | > 100 | > 100 | > 100 |  |  |  |  |  | 
17 | CC1(C)Cc2nnsc2C2=C1C(=O)CCS2 | > 100 | > 100 | > 100 | > 100 | > 100 | > 100 |  |  |  |  |  | 
18 | Cc1cccc(C)c1NC(=O)CCCC(=O)C(C#N)c1ccc(Cl)cc1 (centres undefined) | > 100 | > 100 | > 100 | > 100 |  | > 100 |  |  |  |  |  | 
19 | C[CH2][Ge]([CH2]C)([CH2]C)[O]C(=O)C([O][Ge]([CH2]C)([CH2]C)[CH2]C)c1ccccc1 (centres undefined) | > 100 | > 100 | 37.3 | 97.9 | 16.1 | 31.7 | 20.6 | 23.8 | 16.2 |  | 11.1 | 18.2
20 | COc1ccc(C2N3CCCCC3[C@@H]3c4[nH]c5ccccc5c4CCN23)c(OC)c1 (some centres undefined) | 63.3 | 49.9 | 85.3 | > 100 | 34.6 | 92.3 |  |  |  |  |  | 
21 | CC(C)(C)c1cc(-c2c3nc(c(-c4cc(C(C)(C)C)cc(C(C)(C)C)c4)c4ccc([nH]4)c(-c4cc(C(C)(C)C)cc(C(C)(C)C)c4)c4nc(c(-c5cc(C(C)(C)C)cc(C(C)(C)C)c5)c5ccc2[nH]5)C=C4)C=C3)cc(C(C)(C)C)c1 | > 100 | > 100 | > 100 | > 100 | > 100 | > 100 |  |  |  |  |  | 
22 | CC1NCCc2c1[nH]c1cc(O)ccc21 (centres undefined) | > 100 | > 100 | > 100 | > 100 | > 100 | > 100 |  |  |  |  |  | 
